Experimental data taken from patent US20110142873A1 (priority 2006, published 2011).

Tests used:
[1] = tested on: E7-expressing TC-1 tumors; parameters: species or system C57BL/6 mice; conditions: mouse, in vivo, sc
[2] = tested on: E7-specific CD8-positive T lymphocytes; parameters: species or system C57Bl/6 mice; conditions: mouse, in vivo
[3] = tested on: E7-expressing TC-1.K tumor cells; assay: Regression of large, established TC-1 tumors treated from day 28; parameters: species or system C57Bl/6 mice; conditions: mouse, in vivo
E7 and HspE7 = tested on: E7 and HspE7; parameters: species or system C57Bl/6 female mice; conditions: mouse, in vivo

Row | Substance | anti-tumor activity [1] | biological activity of immune stimulant administered in the absence of HspE7 [2] | regression of large, established tumors [3] | antibody response to E7 and HspE7 (E7 and HspE7)
1 | PolyI:C | no effect on tumor growth | did not display this activity | – | –
2 | PolyICLC | – | did not display this activity | no regression | did not produce an antibody response
